# Results reported in article PMC8330742, “New benzothieno[2,3-c]pyridines as non-steroidal CYP17 inhibitors: design, synthesis, anticancer screening, apoptosis induction, and in silico ADME profile studies” (Journal of Enzyme Inhibition and Medicinal Chemistry, 2021).
# How the values were obtained:
# [1] = system: CCRF-CEM; test: NCI-60 SRB screen; format: cell-based; conditions: Homo sapiens, single dose 10^−5 M, Leukaemia, read-out: Growth inhibition (%)
# [2] = system: HL-60(TB); test: NCI-60 SRB screen; format: cell-based, human; conditions: Homo sapiens; single dose 10^−5 M; HL-60(TB), Leukaemia; read-out: Growth inhibition (%)
# [3] = system: K-562; test: NCI-60 SRB screen; format: cell-based, human; conditions: Homo sapiens, K562; single dose 10^−5 M; K-562, Leukaemia; read-out: Growth inhibition (%)
# [4] = system: MOLT-4; test: NCI-60 SRB screen; format: cell-based; conditions: Homo sapiens; single dose 10^−5 M; MOLT-4, Leukaemia; read-out: Growth inhibition (%)
# [5] = system: SR; test: NCI-60 SRB screen; format: cell-based; conditions: Homo sapiens, single dose 10^−5 M, Leukaemia, read-out: Growth inhibition (%)
# [6] = system: A549/ATCC; test: NCI-60 SRB screen; format: cell-based, human; conditions: Homo sapiens, single dose 10^−5 M, Non-small cell lung carcinoma, read-out: Growth inhibition (%)
# [7] = system: EKVX; test: NCI-60 SRB screen; format: cell-based, human; conditions: Homo sapiens, single dose 10^−5 M, Non-small cell lung carcinoma, read-out: Growth inhibition (%)
# [8] = system: HOP-62; test: NCI-60 SRB screen; format: cell-based, human; conditions: Homo sapiens; single dose 10^−5 M; HOP-62, Non-small cell lung carcinoma; read-out: Growth inhibition (%)
# [9] = system: HOP-92; test: NCI-60 SRB screen; format: cell-based, human; conditions: Homo sapiens; single dose 10^−5 M; HOP-92, Non-small cell lung carcinoma; read-out: Growth inhibition (%)
# [10] = system: NCI-H226; test: NCI-60 SRB screen; format: cell-based, human; conditions: Homo sapiens; single dose 10^−5 M; NCI-H226, Non-small cell lung carcinoma; read-out: Growth inhibition (%)
# [11] = system: NCI-H23; test: NCI-60 SRB screen; format: cell-based, human; conditions: Homo sapiens; single dose 10^−5 M; NCI-H23, Non-small cell lung carcinoma; read-out: Growth inhibition (%)
# [12] = system: NCI-H322M; test: NCI-60 SRB screen; format: cell-based, human; conditions: Homo sapiens, single dose 10^−5 M, Non-small cell lung carcinoma, read-out: Growth inhibition (%)
# [13] = system: NCI-H460; test: NCI-60 SRB screen; format: cell-based, human; conditions: Homo sapiens; single dose 10^−5 M; NCI-H460, Non-small cell lung carcinoma; read-out: Growth inhibition (%)
# [14] = system: NCI-H522; test: NCI-60 SRB screen; format: cell-based, human; conditions: Homo sapiens; single dose 10^−5 M; NCI-H522, Non-small cell lung carcinoma; read-out: Growth inhibition (%)
# [15] = system: COLO 205; test: NCI-60 SRB screen; format: cell-based, human; conditions: Homo sapiens; single dose 10^−5 M; COLO 205, Colon cancer; read-out: Growth inhibition (%)
# [16] = system: HCC-2998; test: NCI-60 SRB screen; format: cell-based, human; conditions: Homo sapiens; single dose 10^−5 M; HCC-2998, Colon cancer; read-out: Growth inhibition (%)
# [17] = system: HCT-116; test: NCI-60 SRB screen; format: cell-based, human; conditions: Homo sapiens; single dose 10^−5 M; HCT-116, Colon cancer; read-out: Growth inhibition (%)
# [18] = system: HCT-15; test: NCI-60 SRB screen; format: cell-based, human; conditions: Homo sapiens; single dose 10^−5 M; HCT-15, Colon cancer; read-out: Growth inhibition (%)
# [19] = system: HT-29; test: NCI-60 SRB screen; format: cell-based; conditions: Homo sapiens; single dose 10^−5 M; HT-29, Colon cancer; read-out: Growth inhibition (%)
# [20] = system: KM12; test: NCI-60 SRB screen; format: cell-based, human; conditions: Homo sapiens; single dose 10^−5 M; KM12, Colon cancer; read-out: Growth inhibition (%)
# [21] = system: SW-620; test: NCI-60 SRB screen; format: cell-based; conditions: Homo sapiens; single dose 10^−5 M; SW-620, Colon cancer; read-out: Growth inhibition (%)
# [22] = system: SF-268; test: NCI-60 SRB screen; format: cell-based, human; conditions: Homo sapiens; single dose 10^−5 M; SF-268, CNS cancer; read-out: Growth inhibition (%)
# [23] = system: SF-295; test: NCI-60 SRB screen; format: cell-based, human; conditions: Homo sapiens; single dose 10^−5 M; SF-295, CNS cancer; read-out: Growth inhibition (%)
# [24] = system: LOX IMVI; test: NCI-60 SRB screen; format: cell-based, human; conditions: Homo sapiens, single dose 10^−5 M, Melanoma, read-out: Growth inhibition (%)
# [25] = system: MALME-3M; test: NCI-60 SRB screen; format: cell-based, human; conditions: Homo sapiens, single dose 10^−5 M, Melanoma, read-out: Growth inhibition (%)
# [26] = system: M14; test: NCI-60 SRB screen; format: cell-based, human; conditions: Homo sapiens; single dose 10^−5 M; M14, Melanoma; read-out: Growth inhibition (%)
# [27] = system: MDA-MB-435; test: NCI-60 SRB screen; format: cell-based; conditions: Homo sapiens, MDA-MB-435, read-out: Growth inhibition (%)
# [28] = system: SK-MEL-2; test: NCI-60 SRB screen; format: cell-based, human; conditions: Homo sapiens; single dose 10^−5 M; SK-MEL-2, Melanoma; read-out: Growth inhibition (%)
# [29] = system: SK-MEL-28; test: NCI-60 SRB screen; format: cell-based; conditions: Homo sapiens; single dose 10^−5 M; SK-MEL-28, Melanoma; read-out: Growth inhibition (%)
# [30] = system: SK-MEL-5; test: NCI-60 SRB screen; format: cell-based, human; conditions: Homo sapiens; single dose 10^−5 M; SK-MEL-5, Melanoma; read-out: Growth inhibition (%)
# [31] = system: UACC-257; test: NCI-60 SRB screen; format: cell-based, human; conditions: Homo sapiens; single dose 10^−5 M; UACC-257, Melanoma; read-out: Growth inhibition (%)
# [32] = system: UACC-62; test: NCI-60 SRB screen; format: cell-based, human; conditions: Homo sapiens; single dose 10^−5 M; UACC-62, Melanoma; read-out: Growth inhibition (%)
# [33] = system: IGROV1; test: NCI-60 SRB screen; format: cell-based, human; conditions: Homo sapiens, IGROV-1; single dose 10^−5 M; IGROV1, Ovarian cancer; read-out: Growth inhibition (%)
# [34] = system: OVCAR-3; test: NCI-60 SRB screen; format: cell-based, human; conditions: Homo sapiens; single dose 10^−5 M; OVCAR-3, Ovarian cancer; read-out: Growth inhibition (%)
# [35] = system: OVCAR-4; test: NCI-60 SRB screen; format: cell-based, human; conditions: Homo sapiens; single dose 10^−5 M; OVCAR-4, Ovarian cancer; read-out: Growth inhibition (%)
# [36] = system: NCI/ADR-RES; test: NCI-60 SRB screen; format: cell-based, human; conditions: Homo sapiens, single dose 10^−5 M, Ovarian cancer, read-out: Growth inhibition (%)
# [37] = system: SK-OV-3; test: NCI-60 SRB screen; format: cell-based, human; conditions: Homo sapiens; single dose 10^−5 M; SK-OV-3, Ovarian cancer; read-out: Growth inhibition (%)
# [38] = system: 786-0; test: NCI-60 SRB screen; format: cell-based; conditions: Homo sapiens; single dose 10^−5 M; 786-0, Renal cancer; read-out: Growth inhibition (%)
# [39] = system: ACHN; test: NCI-60 SRB screen; format: cell-based; conditions: Homo sapiens, single dose 10^−5 M, Renal cancer, read-out: Growth inhibition (%)
# [40] = system: CAKI-1; test: NCI-60 SRB screen; format: cell-based, human; conditions: Homo sapiens; single dose 10^−5 M; CAKI-1, Renal cancer; read-out: Growth inhibition (%)
# [41] = system: RXF 393; test: NCI-60 SRB screen; format: cell-based, human; conditions: Homo sapiens; single dose 10^−5 M; RXF 393, Renal cancer; read-out: Growth inhibition (%)
# [42] = system: SN12C; test: NCI-60 SRB screen; format: cell-based, human; conditions: Homo sapiens, SN12C; single dose 10^−5 M; SN 12 C, Renal cancer; read-out: Growth inhibition (%)
# [43] = system: TK-10; test: NCI-60 SRB screen; format: cell-based, human; conditions: Homo sapiens; single dose 10^−5 M; TK-10, Renal cancer; read-out: Growth inhibition (%)
# [44] = system: UO-31; test: NCI-60 SRB screen; format: cell-based, human; conditions: Homo sapiens; single dose 10^−5 M; UO-31, Renal cancer; read-out: Growth inhibition (%)
# [45] = system: panel of 60 cancer cell lines; test: NCI-60 SRB screen, mean or range over the panel; format: cell-based, human; conditions: Homo sapiens; mean over the cell lines; single dose 10^−5 M; read-out: Mean growth inhibition (%)
smiles,measurement,setting,value
"N#CC1=C(Cl)NC(c2cccc([N+](=O)[O-])c2)c2sc3c(F)cccc3c21 (stereo not drawn) [Compound 7b, 3-Chloro-4-cyano-8-fluoro-1-(3-nitrophenyl)-1,2-dihydro[1]benzothieno [2,3-c]pyridine]",inhibition at 10 µM,[1],3.22%
same,inhibition at 10 µM,[2],1.47%
same,inhibition at 10 µM,[3],8.8%
same,inhibition at 10 µM,[4],7.93%
same,inhibition at 10 µM,[5],15.9%
same,inhibition at 10 µM,[6],-10.1%
same,inhibition at 10 µM,[7],-1.36%
same,inhibition at 10 µM,[8],9.67%
same,inhibition at 10 µM,[9],10.4%
same,inhibition at 10 µM,[10],9.35%
same,inhibition at 10 µM,[11],4.25%
same,inhibition at 10 µM,[12],-3.17%
same,inhibition at 10 µM,[13],2.14%
same,inhibition at 10 µM,[14],-1.38%
same,inhibition at 10 µM,[15],-14.6%
same,inhibition at 10 µM,[16],-18.2%
same,inhibition at 10 µM,[17],11.7%
same,inhibition at 10 µM,[18],-7.25%
same,inhibition at 10 µM,[19],-3.29%
same,inhibition at 10 µM,[20],-0.12%
same,inhibition at 10 µM,[21],3.78%
same,inhibition at 10 µM,[22],6.82%
same,inhibition at 10 µM,[23],-4.69%
same,inhibition at 10 µM,[24],1.46%
same,inhibition at 10 µM,[25],-2.31%
same,inhibition at 10 µM,[26],-5.17%
same,inhibition at 10 µM,[27],-8.18%
same,inhibition at 10 µM,[28],-2.07%
same,inhibition at 10 µM,[29],-11.2%
same,inhibition at 10 µM,[30],-20.1%
same,inhibition at 10 µM,[31],-9.77%
same,inhibition at 10 µM,[32],8.84%
same,inhibition at 10 µM,[33],15.6%
same,inhibition at 10 µM,[34],-1.67%
same,inhibition at 10 µM,[35],-3.81%
same,inhibition at 10 µM,[36],1.73%
same,inhibition at 10 µM,[37],2.24%
same,inhibition at 10 µM,[38],-13.5%
same,inhibition at 10 µM,[39],4.44%
same,inhibition at 10 µM,[40],19.8%
same,inhibition at 10 µM,[41],-15.8%
same,inhibition at 10 µM,[42],4.43%
same,inhibition at 10 µM,[43],-53.8%
same,inhibition at 10 µM,[44],32.5%
same,inhibition at 10 µM,[45],2.14%
"CCN1CCN(C2=C(Cl)c3c(sc4c(F)cccc34)C(c3cccc([N+](=O)[O-])c3)N2)CC1 (stereo not drawn) [Compound 8a, 4-Chloro-3–(4-ethylpiperzin-1-yl)-8-fluoro-1-(3-nitrophenyl)-1,2-dihydro [1]benzothieno[2,3-c]pyridine]",inhibition at 10 µM,[1],1.89%
same,inhibition at 10 µM,[2],-9.32%
same,inhibition at 10 µM,[3],13.2%
same,inhibition at 10 µM,[4],5.94%
same,inhibition at 10 µM,[5],23.5%
same,inhibition at 10 µM,[6],1.8%
same,inhibition at 10 µM,[7],4.5%
same,inhibition at 10 µM,[8],3.76%
same,inhibition at 10 µM,[9],10.7%
same,inhibition at 10 µM,[10],17%
same,inhibition at 10 µM,[11],7.1%
same,inhibition at 10 µM,[12],-1.6%
same,inhibition at 10 µM,[13],0.6%
same,inhibition at 10 µM,[14],14.3%
same,inhibition at 10 µM,[15],-11.9%
same,inhibition at 10 µM,[16],-2.53%
same,inhibition at 10 µM,[17],15%
same,inhibition at 10 µM,[18],2.5%
same,inhibition at 10 µM,[19],2.3%
same,inhibition at 10 µM,[20],-1.16%
same,inhibition at 10 µM,[21],4.03%
same,inhibition at 10 µM,[22],7.38%
same,inhibition at 10 µM,[23],0.4%
same,inhibition at 10 µM,[24],6.7%
same,inhibition at 10 µM,[25],1.57%
same,inhibition at 10 µM,[26],6.73%
same,inhibition at 10 µM,[27],-6.27%
same,inhibition at 10 µM,[28],3.85%
same,inhibition at 10 µM,[29],-10.8%
same,inhibition at 10 µM,[30],-14.1%
same,inhibition at 10 µM,[31],-7.62%
same,inhibition at 10 µM,[32],11.6%
same,inhibition at 10 µM,[33],23.8%
same,inhibition at 10 µM,[34],1.03%
same,inhibition at 10 µM,[35],3.25%
same,inhibition at 10 µM,[36],-1.63%
same,inhibition at 10 µM,[37],1.74%
same,inhibition at 10 µM,[38],-7.31%
same,inhibition at 10 µM,[39],9.21%
same,inhibition at 10 µM,[40],21.9%
same,inhibition at 10 µM,[41],-2.44%
same,inhibition at 10 µM,[42],2.25%
same,inhibition at 10 µM,[43],-41.7%
same,inhibition at 10 µM,[44],35.8%
same,inhibition at 10 µM,[45],-0.2%
